Assay results: publication PMC3966047, “Analysis of the minimal specificity of caspase-2 and identification of Ac-VDTTD-AFC as a caspase-2-selective peptide substrate” (Bioscience Reports, 2014)
“Also recorded” adds a separate entry of the source. Like-named read-outs stand apart in the source and are kept apart here. The star is where a group is joined. AFC = O=c1cc(C(F)(F)F)c2ccc(N*)cc2o1; pNA = O=[N+]([O-])c1ccc(N*)cc1

What was measured:
[1] = tested on: auto-activating caspase-2 in HEK-293T cell lysate; experiment: Fluorogenic peptide cleavage by lysates of HEK-293T cells expressing auto-activating caspase-2; format: biochemical, human embryonic kidney cells; settings: for caspase-2 versus caspase-3 selectivity in cell lysates (in words): HEK-293T lysates with auto-activating caspase-2 or -3, 0.1 mM substrate
Procedure: (§1) Caspases were pre-activated for 30 min at 37°C in their preferred buffers, then diluted and mixed with fluorogenic peptide substrates. Fluorescence (excitation 410 nm, emission 500 nm) was measured every 10–60 s for up to 1 h using a FluoStar Galaxy (BMG Labtech). The maximal slope of each curve was calculated. A standard curve, using free AFC (Sigma), was used to convert fluorescence emissions into concentration of AFC produced during the cleavage reactions. Prism 5.0 software was used to determine kcat and KM from three to four independent experiments, as previously described. Ac-DEVD-AFC and Ac-VDVAD-AFC were purchased from Enzo Life Sciences. The custom substrates Ac-VDTTD-AFC and Ac-VDVPD-AFC were synthesized by 21st Century Biochemicals. 150 nM Bid or 100 nM Runx1 proteins were incubated with specified concentrations of caspases in their preferred buffers for 1 h (Runx1) or 0.5 h (Bid variants) at 37°C, then subjected to SDS–PAGE and immunoblotting with anti-Bid (#AF860 R&D Systems) or anti-His6 antibodies (#A00186 GenScript). Secondary antibodies were anti-mouse-HRP (#A9044, Sigma) or anti-goat-HRP (#6300-05, Southern Biotech). The SuperSignal West Dura Substrate (Thermo Scientific) was used to detect signals and quantitation of sub-saturated exposures was performed using a Syngene G:Box and Image Lab 3.0 software (BioRad). Linear regression was used to determine the caspase concentration, which cleaved half of each protein.
(§2) HEK-293T cells [human embryonic kidney cells expressing the large T-antigen of SV40 (simian virus 40)] were cultured, transfected, harvested and lysed as described except that protease inhibitors were not used. Each lysate was mixed with the appropriate fluorogenic substrate (0.1 mM) in caspase buffer, and fluorescence was monitored as outlined above.

[2] = tested on: caspase-2; experiment: Runx1 cleavage by caspase-2 (anti-His6 immunoblot); format: biochemical; settings: 100 nM in vitro-translated Runx1, 1 h, 37°C
Procedure: (§3) Caspases-2, -3 and -8 were purified using NiNTA resin (Qiagen) from BL21(DE3)pLysS bacteria (Novagen/Merck) transformed with pET23a–caspase-2^Δ1−149 [44], pET23a–caspase-3 [54] or pET15b–caspase-8^Δ1−216 plasmids. Induction conditions were: caspase-2, 0.4 mM IPTG (isopropyl β-D-thiogalactoside), 2 h 37°C; caspase-3, 0.2 mM IPTG, 3 h 30°C; caspase-8, 1 mM IPTG, 4 h 25°C. Caspases were active site-titrated using zVAD-fmk (Merck). ArcticExpress DE3 bacteria (Agilent Technologies) were transformed with the pET23a Bid expression plasmids described above, induced for 48 h at 10°C using 1 mM IPTG, then the His6-tagged Bid proteins were purified using NiNTA resin (Qiagen). Recombinant proteins were quantitated using the Bicinchoninic acid protein assay kit (Sigma). […] The concentration of Runx1 proteins was determined by quantitative anti-His6 immunoblotting, using purified AcP35–His6 [56] as a standard.
(§4) Caspases were pre-activated for 30 min at 37°C in their preferred buffers, then diluted and mixed with fluorogenic peptide substrates. Fluorescence (excitation 410 nm, emission 500 nm) was measured every 10–60 s for up to 1 h using a FluoStar Galaxy (BMG Labtech). The maximal slope of each curve was calculated. A standard curve, using free AFC (Sigma), was used to convert fluorescence emissions into concentration of AFC produced during the cleavage reactions. […]

[3] = target: T1, caspase-3 (Homo sapiens, UniProt P42574); experiment: Runx1 cleavage by caspase-3 (anti-His6 immunoblot); format: biochemical; settings: 100 nM in vitro-translated Runx1, 1 h, 37°C
T1 construct: made in house; host or cells: E. coli BL21(DE3)pLysS
T1 sequence (P42574 29-175 limits assumed): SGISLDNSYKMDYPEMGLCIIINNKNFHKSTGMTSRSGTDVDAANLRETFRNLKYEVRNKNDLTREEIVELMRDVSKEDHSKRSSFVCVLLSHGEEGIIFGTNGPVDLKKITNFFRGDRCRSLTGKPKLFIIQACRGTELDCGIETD
T1 sequence (P42574 176-277 limits assumed): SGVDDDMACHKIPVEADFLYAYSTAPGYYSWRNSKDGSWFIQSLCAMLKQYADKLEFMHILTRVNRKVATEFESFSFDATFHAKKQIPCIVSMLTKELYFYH
Procedure: as §3, §4

[4] = tested on: caspase-8; experiment: Runx1 cleavage by caspase-8 (anti-His6 immunoblot); format: biochemical; settings: 100 nM in vitro-translated Runx1, 1 h, 37°C
Procedure: as §3, §4

[5] = tested on: caspase-2; settings: aldehyde inhibitors; cited from earlier work
Text: (§5) Research into caspase-2 biology has been hampered by a dearth of selective reagents capable of distinguishing between caspases-2 and -3. Peptides and inhibitors based on the sequence VDVAD are marketed as ‘caspase-2-specific’ but also react strongly with caspase-3.

[6] = target: T1, caspase-3; settings: aldehyde inhibitors; cited from earlier work
Text: as §5

[7] = tested on: caspase-2; settings: cited from earlier work
Text: It seems likely that identification of caspase-2 substrates may provide valuable clues to its biological role. […] Apoptotic signalling by caspase-2 has been proposed to result from its processing of the pro-apoptotic Bcl-2 relative Bid. […] Runx1 plays a critical role in haematopoiesis, and Runx1 translocations or other mutations occur frequently in myeloid leukaemias, and less commonly in other cancer types.

[8] = tested on: auto-activating caspase-3 in HEK-293T cell lysate; experiment: Fluorogenic peptide cleavage by lysates of HEK-293T cells expressing auto-activating caspase-3; format: biochemical, human embryonic kidney cells; settings: for cleavage by lysates of cells expressing caspase-3 (in words): HEK-293T lysate, auto-activating caspase-3, 0.1 mM substrate, rate of fluorescence increase, three independent transfections
Procedure: as §1, §2

[9] = tested on: caspase-2; experiment: Fluorogenic peptide cleavage by purified caspase-2 (AFC release); format: biochemical; settings: for selectivity for caspase-2 relative to caspase-3 (in words): purified caspases-2 and -3
Procedure: (§6) Caspases-2, -3 and -8 were purified using NiNTA resin (Qiagen) from BL21(DE3)pLysS bacteria (Novagen/Merck) transformed with pET23a–caspase-2^Δ1−149 [44], pET23a–caspase-3 [54] or pET15b–caspase-8^Δ1−216 plasmids. Induction conditions were: caspase-2, 0.4 mM IPTG (isopropyl β-D-thiogalactoside), 2 h 37°C; caspase-3, 0.2 mM IPTG, 3 h 30°C; caspase-8, 1 mM IPTG, 4 h 25°C. Caspases were active site-titrated using zVAD-fmk (Merck). ArcticExpress DE3 bacteria (Agilent Technologies) were transformed with the pET23a Bid expression plasmids described above, induced for 48 h at 10°C using 1 mM IPTG, then the His6-tagged Bid proteins were purified using NiNTA resin (Qiagen). Recombinant proteins were quantitated using the Bicinchoninic acid protein assay kit (Sigma). Runx1 proteins were synthesized using the TNT T7 quick coupled transcription/translation system (Promega) with non-radioactive methionine, using intact Runx1–pET23a plasmids as templates. The concentration of Runx1 proteins was determined by quantitative anti-His6 immunoblotting, using purified AcP35–His6 [56] as a standard.
as §1

[10] = target: T1, caspase-3; experiment: Fluorogenic peptide cleavage by purified caspase-3 (AFC release); format: biochemical
Procedure: as §6
as §1, with “150 nM Bid or 100 nM Runx1 proteins were incubated with specified concentrations of caspases in their preferred buffers for 1 h (Runx1) or 0.5 h (Bid variants) at 37°C, then subjected to SDS–PAGE and immunoblotting with anti-Bid (#AF860 R&D Systems) or anti-His6 antibodies (#A00186 GenScript). Secondary antibodies were anti-mouse-HRP (#A9044, Sigma) or anti-goat-HRP (#6300-05, Southern Biotech).” left out, “Linear regression was used to determine the caspase concentration, which cleaved half of each protein.” left out

[11] = tested on: caspase-2; settings: cited from earlier work; remark: listed apart in the source
Text: (§7) Some of the confusion regarding the function of caspase-2 may stem from researchers’ use of non-specific tools for monitoring its activity and inhibition. […] Subsequent studies have confirmed the lack of specificity associated VDVAD-based tools, yet many researchers continue to employ substrates and inhibitors derived from this peptide sequence as c ...

[12] = target: T1, caspase-3; settings: compared with caspase-2; cited from earlier work
Text: as §7

[13] = tested on: caspase-2; experiment: Bid protein cleavage by caspase-2 (anti-Bid immunoblot); format: biochemical; settings: 150 nM Bid protein, 0.5 h, 37°C, preferred buffer, from caspase concentration cleaving half of the substrate
Procedure: as §3, §4

[14] = target: T1, caspase-3; experiment: Bid protein cleavage by caspase-3 (anti-Bid immunoblot); format: biochemical; settings: 150 nM Bid protein, 0.5 h, 37°C
Procedure: as §3, §4

[15] = tested on: caspase-8; experiment: Bid protein cleavage by caspase-8 (anti-Bid immunoblot); format: biochemical; settings: 150 nM Bid protein, 0.5 h, 37°C
Procedure: as §3, §4

[16] = tested on: caspase-8; settings: subsequent data; cited from earlier work
Text: It seems likely that identification of caspase-2 substrates may provide valuable clues to its biological role. […] Apoptotic signalling by caspase-2 has been proposed to result from its processing of the pro-apoptotic Bcl-2 relative Bid.

[17] = preferred buffer, anti-Bid immunoblot, from caspase concentration cleaving half of the substrate

Molecule: Ac-VDVAD-{AFC} [classical caspase-2 substrate, purchased from Enzo Life Sciences, reference compound]
- caspase-2 versus caspase-3 selectivity in cell lysates (in words) [1]: cleaved only slightly better by extracts from cells expressing caspase-2 than caspase-3

Molecule: Runx1^DVPG: P1 mutant of Runx1
- Runx1 cleavage by caspase-2 (in words) [2]: yielded a larger product
- Runx1 cleavage by caspase-3 (in words) [3]: yielded a larger product
- Runx1 cleavage by caspase-8 (in words) [4]: yielded a larger product

Molecule: Ac-VDVAD-aldehyde
- inhibition of caspase-2 compared with caspase-3 (in words) [5]: inhibited caspases-2 and -3 with similar potencies
- inhibition of caspase-3 compared with caspase-2 (in words) [6]: inhibited caspases-2 and -3 with similar potencies

Molecule: EIF4B: translation initiation factor EIF4B
- cleavage by caspase-2 versus other caspases (in words) ([7]; degradomics, lysates): more efficiently cleaved by caspase-2

Molecule: Ac-VDVPD-aldehyde
- inhibition of caspase-2 compared with caspase-3 (in words) [5]: inhibited caspases-2 and -3 with similar potencies
- inhibition of caspase-3 compared with caspase-2 (in words) [6]: inhibited caspases-2 and -3 with similar potencies

Molecule: Ac-DEVD-AFC [reference compound]
- cleavage by lysates of cells expressing caspase-3 (in words) [8]: extracts from cells expressing active caspase-3 cleaved Ac-DEVD-AFC most efficiently

Molecule: Cux1: transcription factor Cux1
- cleavage by caspase-2 (in words) [7]: efficiently cleaved

Molecule: Ac-VDVPD-{AFC} [custom fluorogenic substrate based on the Runx1 cleavage site]
- cleavage by caspase-2 (in words) ([9]; purified caspase-2): enhanced sensitivity to caspase-2 relative to Ac-VDVAD-AFC; also recorded: cleaved by caspase-2 slightly better than Ac-VDVAD
- selectivity for caspase-2 relative to caspase-3 (in words) [9]: less specific than Ac-VDVAD-AFC for caspase-2 relative to caspase-3; also recorded: lacked the sought-after selectivity for caspase-2 over caspase-3
- cleavage by caspase-3 (in words) [10]: proteolysed this substrate more efficiently than Ac-VDVAD-AFC
- caspase-2 versus caspase-3 selectivity in cell lysates (in words) [1]: cleaved at similar rates in cell lysates containing active caspases-2 or -3

Molecule: Ac-VDVAD-pNA
- cleavage by caspase-2 (in words) [11]: could efficiently cleave peptides containing the sequence VDVAD
- cleavage by caspase-3 (in words) [12]: caspase-3 could cleave these peptides with similar kinetics

Molecule: Ac-VDTTD-{AFC} [custom fluorogenic substrate synthesized by 21st Century Biochemicals]
- cleavage by caspase-2 (in words) ([9]; purified caspase-2): efficiently cleaved by purified caspase-2
- cleavage efficiency relative to Ac-VDVAD-AFC (caspase-2) ([9]; purified caspase-2, fold versus Ac-VDVAD-AFC): four
- selectivity for caspase-2 relative to caspase-3 (in words) [9]: better selectivity for caspase-2 relative to caspase-3 than reagents that are currently available; also recorded: exhibits enhanced caspase-2 sensitivity and specificity, relative to Ac-VDVAD-AFC
- cleavage by caspase-3 (in words) [10]: only cleaved it slightly more efficiently than Ac-VDVAD-AFC
- cleavage efficiency relative to Ac-VDVAD-AFC (caspase-3) ([10]; fold versus Ac-VDVAD-AFC): 1.7 times
- cleavage by lysates of cells expressing caspase-2 (in words) ([1]; HEK-293T lysate, auto-activating caspase-2, 0.1 mM substrate, rate of fluorescence increase, three independent transfections): efficiently cleaved by purified caspase-2 and auto-activating caspase-2 in mammalian cells; also recorded: lysates from cells expressing active caspase-2 cleaved Ac-VDTTD-AFC more efficiently than the other peptides
- caspase-2 versus caspase-3 selectivity in cell lysates (in words) [1]: significantly more selective for caspase-2 than the commonly used Ac-VDVAD-AFC peptide; also recorded: does not offer this degree of specificity
- VDTTDase activity relative to DEVDase activity ([1]; lysates from cells expressing caspase-2, background activity in vector transfectant lysates subtracted, 0.1 mM substrate): ~14 times
- cleavage by lysates of cells expressing caspase-3 (in words) [8]: proteolysed by lysates containing caspase-3, but at a slower rate than by lysates from cells expressing caspase-2
- DEVDase activity relative to VDTTDase activity ([8]; cells expressing active caspase-3, Ac-DEVD-AFC versus Ac-VDTTD-AFC, 0.1 mM substrate): 3.3 times

B1: wild-type Bid: Bid protein bearing the native LQTD cleavage site (protein, UniProt P55957 1-195, looked up)
BH3-interacting domain death …: MDCEVNNGSSLRDECITNLLVFGFLQSCSDNSFRRELDALGHELPVLAPQWEGYDELQTDGNRSSHSRLGRIEADSESQEDIIRNIARHLAQVGDSMDRSIPPGLVNGLALQLRNTSRSEEDRNRDLATALEQLLQAYPRDMEKEKTMLVLALLLAKKVASHTPSLLRDVFHTTVNFINQNLRTYVRSLARNGMD
- second-order rate constant (estimate of kcat/KM), caspase-2 [13]: 3200 M⁻¹ s⁻¹
- Bid cleavage by caspase-3 (in words) ([14]; immunoblot): barely sensitive to proteolysis by even high concentrations of caspase-3
- second-order rate constant (estimate of kcat/KM), caspase-3 [14, 17]: 160 M⁻¹ s⁻¹
- processing efficiency by caspase-8 relative to caspase-2 [15]: about seven
- second-order rate constant (estimate of kcat/KM), caspase-8 [15, 17]: 22000 M⁻¹ s⁻¹
- Bid cleavage by caspases-2 and -8 (in words) ([7]; initial results): could cleave Bid with similar efficiency
- Bid cleavage by caspase-8 compared with caspase-2 (in words) [16]: the processing by caspase-8 was more efficient
